Literature values in patent US20210128561A1, “MRGX Receptor Antagonists” (Rheinische-Friedrich-Wilhelms-Universität Bonn, priority 2019, published 2021).
Like-named read-outs stand apart in the source and are kept apart here.

What was measured:
[1] = molecular target: T1, MrgX2 (Homo sapiens, UniProt Q96LB1); conditions: versus CST-14, calcium mobilization; cited from earlier work
T1 construct: host or cells: recombinant HEK cells (A3); CHEM1 cells recombinantly expressing MrgX2 (A11)
T1 sequence (Q96LB1 1-330): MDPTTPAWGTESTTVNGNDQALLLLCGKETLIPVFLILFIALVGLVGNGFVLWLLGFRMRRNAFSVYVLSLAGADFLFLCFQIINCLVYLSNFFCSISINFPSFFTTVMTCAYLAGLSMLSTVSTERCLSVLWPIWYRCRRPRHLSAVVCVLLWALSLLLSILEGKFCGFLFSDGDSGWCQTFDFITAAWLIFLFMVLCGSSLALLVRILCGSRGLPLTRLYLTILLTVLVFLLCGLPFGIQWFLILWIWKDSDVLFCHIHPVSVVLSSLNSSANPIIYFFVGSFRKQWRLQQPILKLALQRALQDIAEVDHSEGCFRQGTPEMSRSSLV

[2] = molecular target: T1, MrgX2; conditions: read-out: EC50 value; calcium assays, MrgX2 activation; cited from earlier work
[3] = tested on: human LAD2 mast cells; conditions: cited from earlier work
[4] = molecular target: T1, MrgX2; conditions: calcium assays; cited from earlier work
[5] = molecular target: T1, MrgX2; conditions: β-arrestin assay; cited from earlier work
[6] = molecular target: T1, MrgX2; conditions: calcium mobilization assay; cited from earlier work
[7] = tested on: CHEM1 cells without MrgX2 overexpression; conditions: cited from earlier work
[8] = molecular target: T1, MrgX2; conditions: CHEM1 cell line recombinantly expressing MrgX2; cited from earlier work

In the case of CC(=O)N1c2ccccc2Nc2ccccc21 [Compound 1, 1-(5H-10λ^2-phenazin-5-yl)ethan-lone], the IC50 [1] is given as 1.6 µM.

In the case of CN1CC[C@]23c4c5ccc(O)c4O[C@H]2[C@@H](O)C=C[C@H]3[C@H]1C5 [morphine], the EC50 [2] is listed as 4.5 µM.

For CN1CC[C@@]23CCCC[C@@H]2[C@@H]1Cc1ccc(O)cc13 [dextrorphan], the EC50 [2] is given as 1.4 µM.

For C[C@H]1O[C@@H](O[C@H]2CC[C@@]3(C)[C@@H](CC[C@]4(C)[C@@H]3C=C[C@]35OC[C@@]6(CCC(C)(C)C[C@H]63)[C@@H](O)C[C@]54C)[C@]2(C)CO)[C@H](O)[C@@H](O[C@@H]2O[C@H](CO)[C@@H](O)[C@H](O)[C@H]2O)[C@H]1O [saikosaponin A, Saikosaponin A], the “β-hexosaminidase release of substance P and saikosaponin A together” value ([3]; 0.50 μM saikosaponin A vs. 30 μg/mL (≈31.2 μM) compound 48/80, LAD2) is listed as 30%.

For O=c1c2ccccc2[nH]c(=S)n1Cc1ccccn1 [compound 2, 3-(pyridine-2-ylmethyl)-2-thioxo-2,3-dihydro-4H-1λ^2-quinazolin-4-one], the IC50 [1] is given as 2.5 µM.

For C[C@@H]1C[C@H]2Cc3ncc(-c4ccc5c(n4)C[C@@H]4C[C@@H](C)C[C@]56NCCC[C@H]46)cc3[C@]3(C1)NCCC[C@H]23 [Complanadine A], the EC50 [4] is listed as 5.5 µM.

For CN1CC[C@]2(c3cccc(O)c3)Cc3nc4ccccc4cc3C[C@H]2C1 [TAN-67], the EC50 [5] is given as ~1 µM and the EC50 [6] is given as ~1 µM.

In the case of COc1ccc2c(c1)[C@@]13CCCC[C@H]1[C@@H](C2)NCC3 [3-methoxymorphinan], the EC50 [2] is listed as 4.7 µM.

In the case of O=C(/C=C/c1ccc(O)cc1)c1ccc(O)cc1O [isoliquiritigenin, Isoliquiritigenin], the “β-hexosaminidase release of compound 48/80 and isoliquiritigenin together” value ([3]; 50 μM isoliquiritigenin vs. 30 μg/mL (≈31.2 μM) compound 48/80, LAD2) is given as 40%.

B1: CXCL14: small chemokine (C-X-C motif) ligand 14 (protein, UniProt O95715 35-111, looked up)
C-X-C motif chemokine 14: SKCKCSRKGPKIRYSDVKKLEMKPKYPHCEEKMVIITTKSVSRYRGQEHCLHPKLQSTKRFIKWYNAWNEKRRVYEE
In the case of B1, the calcium release [7] is listed as “not to mediate calcium release” and the EC50 [8] is listed as 0.57 µM.
